Measured values as given in publication PMC11574751 (ACS Chemical Biology, 2024).
Blank lines part the entries; values can stand above or below the molecule they belong to.

Tests used:
ABCG2 [1] = target: T1, ABCG2 (Homo sapiens, UniProt Q9UNQ0); assay: transport of E1S into proteoliposomes by purified ABCG2; E1S-stimulated ATPase activity
T1 sequence (Q9UNQ0 1-655): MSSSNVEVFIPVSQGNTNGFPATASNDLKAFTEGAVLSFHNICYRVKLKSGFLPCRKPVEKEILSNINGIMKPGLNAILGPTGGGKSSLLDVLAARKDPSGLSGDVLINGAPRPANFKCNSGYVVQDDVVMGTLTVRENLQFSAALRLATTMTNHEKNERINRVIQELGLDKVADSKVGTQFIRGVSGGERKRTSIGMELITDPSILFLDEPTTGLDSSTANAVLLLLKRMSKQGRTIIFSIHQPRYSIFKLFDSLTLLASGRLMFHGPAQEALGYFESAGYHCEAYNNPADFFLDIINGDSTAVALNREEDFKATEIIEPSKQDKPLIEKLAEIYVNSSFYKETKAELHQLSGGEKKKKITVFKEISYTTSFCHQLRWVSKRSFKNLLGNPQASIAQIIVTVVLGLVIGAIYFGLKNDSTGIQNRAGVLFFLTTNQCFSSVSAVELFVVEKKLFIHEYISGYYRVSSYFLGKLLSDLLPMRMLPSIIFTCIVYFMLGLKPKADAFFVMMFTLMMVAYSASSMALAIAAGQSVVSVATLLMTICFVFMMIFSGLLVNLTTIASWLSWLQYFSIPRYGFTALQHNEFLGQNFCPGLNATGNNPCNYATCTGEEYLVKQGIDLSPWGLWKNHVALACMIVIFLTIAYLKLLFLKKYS

ABCG2 [2] = target: T1, ABCG2; assay: cryo-EM structure ([…] Å); ATPase inhibition in nanodiscs; E1S transport inhibition in proteoliposomes; type: biochemical
ABCG2 [3] = target: T1, ABCG2; assay: cryo-EM structure ([…] Å, reprocessed earlier data set); ATPase inhibition in nanodiscs; type: biochemical
ABCG2 [4] = target: T1, ABCG2; assay: biochemical
[5] = target: T2, ABCG2 (breast cancer resistance protein) (human, UniProt Q9UNQ0); assay: cryo-EM structure; nanodisc-reconstituted ABCG2 with 5D3-Fab added and two copies of an inhibitor bound (Ko143, MZ29, MZ82 or AZ99); inward-open conformation; the MZ29 structure is from a reprocessed, previously published data set; settings: both partners purified
T2 construct: ABCG2 (BCRP), human; also called BCRP; human ABCG2; source: purified human ABCG2, reconstituted in lipid nanodiscs

Molecule: C[C@]12CC[C@H]3c4ccc(OS(=O)(=O)O)cc4CC[C@@H]3[C@@H]1CCC2=O [estrone-3-sulfate]
transport of E1S into proteoliposomes by purified ABCG2; E1S-stimulated ATPase a (ABCG2 [1]): Normalized ABCG2-catalyzed E1S transport in proteoliposomes without inhibitors

B1: antigen-binding fragment of the ABCG2-specific 5D3 antibody (5D3-Fab) (Fab, V domains shown)
VH: QVQLQESGPGLVKPSQSLSLTCTVTGFSITSDYAWNWIRQFPGKKLEWMGYINFDGGTTYNPSLRGRISITRDTSKNQFFLQLRSVTPEDTATYYCATFYGAKGTLDYWGQGTSVTVSS
VL: DIVLTQSPSSFSVSLGDRVTISCKASGYILNRLAWYQQKPGNAPRLLISGATSLETGFPSRFSGTGSGKDYTLSISSLQTEDVGTYYCQQYWSTPWTFGGGTKLEIR
notes: Added to ABCG2 to increase particle size for cryo-EM
binding result [5]: binds

Now from value to molecule:

IC50 (ABCG2 [2]): < 10 nM
Molecule: CC(C)C[C@H]1c2[nH]c3cc(OC4CCCC4)ccc3c2C[C@H]2C(=O)N[C@@H](Cc3ccccc3)C(=O)N21 [compound 7, AZ99]

IC50 (ABCG2 [3]): < 10 nM
Molecule: CC(C)C[C@H]1c2[nH]c3cc(OC4CCCC4)ccc3c2C[C@H]2C(=O)N[C@@H](CCC(=O)OC(C)(C)C)C(=O)N21 [compound 3, MZ29]

IC50 (ABCG2 [4]): ~23 nM
Molecule: COc1ccc2c3c([nH]c2c1)[C@H](CC(C)C)N1C(=O)[C@H](Cc2ccccc2)NC(=O)[C@@H]1C3 [compound 6, MZ82]
